Assay results published in ChEMBL document CHEMBL5058646 (2022).

Molecular target: B-cell lymphoma 6 protein (Homo sapiens, UniProt P41182)
Assay: TR-FRET; call rule not given here

Compound: C[C@@H]1CN(c2nccc(Nc3ccc4c(c3)n(CCC(C)(C)O)c(=O)n4C)n2)C[C@H](C)C1(F)F
- IC50: 21 µM (not active)
